Test results: publication PMC11618052, “Design, synthesis, and antiproliferative activity of new 1,2,3-triazole/quinazoline-4-one hybrids as dual EGFR/BRAF^V600E inhibitors” (RSC Advances, 2024)
Several values for one entry are separate records, joined by “and”; a condition that tells them apart may be missing. Identical values can stand only once.

How the values were obtained:
lung cancer (A-549) = assay: Antiproliferative MTT assay, A-549; format: cell-based; conditions: Homo sapiens, A549, A-549 lung cancer cells, read-out: Antiproliferative activity IC50 ± SEM, A-549
Protocol: The median inhibitory concentration (IC50) and GI50 (mean IC50) for the four cancer cell lines were calculated. Appendix A ^† contains more details. […]

Caspase-8 = Caspase-8 level assay in MCF-7; format: cell-based, human; conditions: for Caspase-8 Fold change: MCF-7, versus untreated control; for Caspase-8 Conc.: MCF-7 cancer cell line
Protocol: Compounds 8g and 8h were evaluated as caspase-3, 8 and Bax activators and as down-regulator of the anti-apoptotic protein Bcl2 against the MCF-7 breast cancer cell line.[40] Appendix A ^† contains more details.
Compound 8g had the most overexpression of caspase-8 (2.60 ng mL^−1), followed by compound 8h (2.10 ng mL^−1) and staurosporine as a control (1.80 ng mL^−1). […]
monitored, and the substrate reaction stopped before the O.D. of the positive wells exceeds the limits of the instrument. The O.D. values at 450 nm can only be read after the Stop Solution has been added to each well. If using a reader that records only to 2.0 O.D., stopping the assay after […]
Add 100 μl of Stop Solution to each well. Tap side of plate gently to mix. The solution in the wells should change from blue to yellow. Read the absorbance of each well at 450 nm having blanked the plate reader against a chromogen blank composed of 100 μl each of Stabilized Chromogen and Stop Solution. Read the plate within 2 hours after adding the Stop Solution. Use a curve fitting software to generate the standard curve. A four-parameter algorithm provides the best standard curve fit. Read the concentrations for unknown samples and controls from the standard curve. Multiply value(s) obtained for sample(s) by the appropriate dilution factor to correct for the dilution in step 3. Samples producing signals greater than that of the highest standard should be diluted in Standard Diluent Buffer and reanalyzed.
4.2.1.6. Caspase-8 activation assay
Cells were obtained from American Type Culture Collection, cells were grown in RPMI 1640 containing 10% fetal bovine serum at 37°C, stimulated with the compounds to be tested for caspase8, and lysed with Cell Extraction Buffer. This lysate was diluted in Standard Diluent Buffer over the range of the assay and measured for human active caspase-8 content. (Cells are Plated in a density of 1.2 – 1.8 × 10,000 cells/well in a volume of 100µl complete growth medium + 100 ul of the tested compound per well in a 96-well plate for 24 hours before the enzyme assay for Tubulin.). The absorbance of each microwell was read on a spectro-photometer at 450 nm. A standard curve is prepared from 7human Caspase-8 standard dilutions and human Caspase-8 concentration determined.
4.2.1.7. Bax activation assay

Bcl-2 = Bcl-2 level assay in MCF-7; format: cell-based, human; conditions: for Bcl-2 Fold reduction: MCF-7, versus untreated control; for Bcl-2 Conc.: MCF-7 cancer cell line
Protocol: Compounds 8g and 8h were evaluated as caspase-3, 8 and Bax activators and as down-regulator of the anti-apoptotic protein Bcl2 against the MCF-7 breast cancer cell line.[40] Appendix A ^† contains more details. […]
4.2.1.8. Bcl-2inhibition assay
Mix all reagents thoroughly without foaming before use. Wash the microwells twice with approximately 300 μL Wash Buffer per well with thorough aspiration of microwell contents between washes. Take caution not to scratch the surface of the microwells. After the last wash, empty the wells and tap microwell strips on absorbent pad or paper towel to remove excess Wash Buffer. Use the microwell strips immediately after washing or place upside down on a wet absorbent paper for not longer than 15 minutes. […] Add 100 μL of Sample […]
Diluent in duplicate to all standard wells and to the blank wells. Prepare standard (1:2 dilution) in duplicate ranging from 32 ng/mL to 0.5 ng/mL. Add 100 μL of Sample Diluent, in duplicate, to the blank wells. Add 80 μL of Sample Diluent, in duplicate, to the sample wells. Add 20 μL of each Sample, in duplicate, to the designated wells. Add 50 μL of diluted biotin-conjugate to all wells, including the blank wells. Cover with a plate cover and incubate at room temperature, on a microplate shaker at 100 rpm if available, for 2 hours. Remove plate cover and empty the wells.
Wash microwell strips 3 times as described in step 2. Add 100 μL of diluted Streptavidin-HRP to all wells, including the blank wells. Cover with a plate cover and incubate at room temperature, on a microplate shaker at 100 rpm if available, for 1 hour. Remove plate cover and empty the wells.
Wash microwell strips 3 times as described in step 2. Proceed to the next step. Pipette 100 μl of mixed TMB Substrate Solution to all wells, including the blanks. Incubate the microwell strips at room temperature (18° to 25°C) for about 15 minutes, if available on a rotator set at 100 rpm.
Avoid direct exposure to intense light. The point, at which the substrate reaction is stopped, is often determined by the ELISA reader. Many ELISA readers record absorbance only up to 2.0
O.D. Therefore, the color development within individual microwells must be watched by the person running the assay and the substrate reaction stopped before positive wells are no longer properly detectable. Stop the enzyme reaction by quickly pipetting 100 μL of Stop Solution into each well, including the blank wells. It is important that the Stop Solution is spread quickly and uniformly throughout the microwells to completely inactivate the enzyme. Results must be read immediately after the Stop Solution is added or within one hour if the microwell strips are stored at 2 - 8°C in the dark. Read absorbance of each microwell on a spectrophotometer using 450 nm as the primary wavelength. […]
(FITC) and propidium iodide (PI) staining kit (BD Pharmingen, San Diego, USA). […]
μL of FITC and PI were added to Eppendorf tube, cells were vortexed, incubated for 15 min at room temperature in dark. Subsequently, cells were analyzed by flow cytometry (Becton Dickinson, Franklin Lakes, and USA).

IC50 (lung cancer (A-549)) [nM] | SMILES | Caspase-8 Fold change (Caspase-8) | Caspase-8 Conc. (Caspase-8) | Bcl-2 Fold reduction (Bcl-2) | Bcl-2 Conc. (Bcl-2) [ng/mL] | Caspase-8 Conc. (Caspase-8; listed as staurosporine) [ng/mL]
22 ± 1 | COc1ccc(-n2cc(CSc3nc4ccccc4c(=O)n3-c3ccc(C)cc3)nn2)cc1 [Compound 8g, 2-(((1-(4-Methoxyphenyl)-1H-1,2,3-triazol-4-yl)methyl)thio)-3-(p-tolyl)quinazolin-4(3H)-one] | 28 | 2.60 ng/mL and 2.60 ± 0.20 ng/mL | 7 | 0.70 | 
25 ± 1 | Cc1ccc(-n2cc(CSc3nc4ccccc4c(=O)n3-c3ccc(C)cc3)nn2)cc1 [Compound 8h, 2-(((1-(p-Tolyl)-1H-1,2,3-triazol-4-yl)methyl)thio)-3-(p-tolyl)quinazolin-4(3H)-one] | 23 | 2.10 ng/mL and 2.10 ± 0.20 ng/mL | 6 | 0.90 | 
 | CN[C@@H]1C[C@H]2O[C@@](C)([C@@H]1OC)n1c3ccccc3c3c4c(c5c6ccccc6n2c5c31)C(=O)NC4 [Staurosporine, reference compound] | 20 | 1.80 ± 0.10 ng/mL | 5 | 1.10 | 1.80
